Measurements published in US8318947B2, “Comestible compositions comprising high potency savory flavorants, and processes for producing them” (Senomyx, Inc., priority 2006, dated 2012).

Experiments:
external tasters = test: Cajun BBQ potato chips focus group taste test; assay type: in vivo, human; conditions: chips with 3 ppm compound; eleven panelists
Experimental: Two solid savory flavor concentrate compositions were prepared by spray drying procedures equivalent to those reported in Example 35. One savory flavor concentrate sample, comprising 0.01% (wt/wt) of the compound of Example 1 was prepared via from the compound of Example 1, Neobee M-5 medium chain triglycerides, N-Lok 1930 modified food starch, and maltodextrin. Another savory flavor concentrate sample, comprising 0.01% (wt/wt) of the compound of Example 24 was similarly prepared via from the compound of Example 24, Neobee M-5 medium chain triglycerides, N-Lok 1930 modified food starch, and maltodextrin. A basic dry seasoning mix for providing Cajun flavor for the chips was prepared by dry blending the ingredients in Table 38-1 using a […] blender for 5 minutes at 40-80 rpms using a wire whip attachment. Kettle® Unsalted potato chips were hand broken into reasonably uniform 1⁄2''×1⁄2'' pieces and placed in a polyethylene 26.7 cm×27.9 cm non-vented food bag. The chips were then heated in an Amana Commercial 1200 watt microwave for 20 seconds to release oils, and so the seasoning would adhere to the chips. […] The panelists evaluated the four sample types of Cajun BBQ chips in a Focus Group taste test procedure and were instructed to write comments on several attributes: sweet, BBQ, Cajun spice, pepper, onion, salt, potato, umami, off tastes, other, and liking or disliking. […]

[1] = tested on: human panelists, savory taste; test: Savory taste test with trained human panel (difference from reference); assay type: in vivo; conditions: for Taste Data: cpd concentration at which 12 mM MSG + cpd is as strong as 12 mM MSG + 100 μM IMP: with 12 mM MSG, reference 12 mM MSG + 100 μM IMP
Experimental: General Panelist Selection: Basic screening of sensory taste testers: Potential panelists were tested for their abilities to rank and rate intensities of solutions representing the five basic tastes. Panelists ranked and rated intensity of five different concentrations of each of the five following compounds: sucrose (sweet), sodium chloride (salty), citric acid (sour), caffeine (bitter), and monosodium glutamate (savory). In order to be selected for participation in testing, panelists needed to correctly rank and rate samples for intensity, with a reasonable number of errors.
Preliminary Taste Tests: The panelists selected in the above procedure were deemed qualified for performing Preliminary Taste Testing procedures. The preliminary taste tests are used to evaluate new compounds for intensity of basic tastes and off-tastes. A small group of panelists (n=5) taste approximately 5 concentrations of the compound (range typically between 1-100 μM, in half-log cycles, e.g., 1, 3, 10, 30, and 100 μM) in water and in a solution of 12 mM MSG to evaluate enhancement. Panelists rate the five basic tastes (sweet, salty, sour, bitter, and savory) as well as off-tastes (such as chemical, metallic, sulfur) on a labeled magnitude scale. Samples are served in 10 mL portions at room temperature. The purpose of the test is to determine the highest concentration at which there is no objectionable off-taste, and determine if obvious savory taste or enhancement of savory taste exists at any of the concentrations tested.
Trained Panelist Selection: A trained expert panel was used to further evaluate compounds that had been tested with the preliminary taste test.
Panelists for the trained panel were selected from the larger group of qualifying taste panelists. Panelists were further trained on savory taste by ranking and rating experiments using MSG and IMP combinations. Panelists completed a series of ranking, rating, and difference from reference tests with savory solutions. In ranking and rating experiments, panelists evaluated easy MSG concentrations (0, 6, 18, 36 mM) and more difficult MSG concentrations (3, 6, 12, 18 mM MSG) in water.
Compound testing with Trained Panel: Compounds tested by the trained panel were evaluated in difference from reference experiments. […] Test samples were solutions with varying amounts of MSG, IMP, and the compound. Typically, each session compares the reference sample to numerous test samples. […] Compounds were tested against the reference in samples with and without 12 mM MSG. All samples were presented in 10 ml volumes at room temperature. Two sessions were completed for each compound tested to evaluate panel reproducibility.

Structure (SMILES)	Panelists reporting higher intensity of Cajun spice and pepper flavors (external tasters)	Taste Data: cpd concentration at which 12 mM MSG + cpd is as strong as 12 mM MSG + 100 μM IMP [1]	Taste Data: cpd concentration as strong as 12 mM MSG ([1]; compound alone, without MSG)
CCCC(CCC)NC(=O)c1ccc2c(c1)OCO2 [Example 1, N-(heptan-4-yl)benzo[d][1,3]dioxole-5-carboxamide]	9/11	12 mM MSG + 3 μM cpd as	
COc1ccc(CNC(=O)C(=O)NCCc2ccccn2)c(OC)c1 [Example 24, N-(2,4-Dimethoxy-benzyl)-N′-(2-pyridin-2-yl-ethyl)-oxalamide]	9/11	12 mM MSG + 1 μM cpd as	1 μM cpd as strong as
